Patent US9370515B2, “Mixed lineage kinase inhibitors and method of treatments” (CALIFIA BIO, INC., priority 2013, dated 2016)
“Also recorded” adds a separate entry of the source. Read-outs that look alike come from different tables or passages of the source.

Tests used:
[1] = mice, Goodfellow et al 2013; cited from earlier work
[2] = molecular target: MLK-3 (Homo sapiens, UniProt Q16584); experiment: Biochemical assay for the inhibition of kinase activity for MLK-3 (33P-ATP, HOTSPOT filter binding); conditions: activated MLK-3 20 nM, ATP 50 μM, myelin basic protein 20 μM, 20 minutes room temperature
Chain of MLK-3 (Q16584 whole entry): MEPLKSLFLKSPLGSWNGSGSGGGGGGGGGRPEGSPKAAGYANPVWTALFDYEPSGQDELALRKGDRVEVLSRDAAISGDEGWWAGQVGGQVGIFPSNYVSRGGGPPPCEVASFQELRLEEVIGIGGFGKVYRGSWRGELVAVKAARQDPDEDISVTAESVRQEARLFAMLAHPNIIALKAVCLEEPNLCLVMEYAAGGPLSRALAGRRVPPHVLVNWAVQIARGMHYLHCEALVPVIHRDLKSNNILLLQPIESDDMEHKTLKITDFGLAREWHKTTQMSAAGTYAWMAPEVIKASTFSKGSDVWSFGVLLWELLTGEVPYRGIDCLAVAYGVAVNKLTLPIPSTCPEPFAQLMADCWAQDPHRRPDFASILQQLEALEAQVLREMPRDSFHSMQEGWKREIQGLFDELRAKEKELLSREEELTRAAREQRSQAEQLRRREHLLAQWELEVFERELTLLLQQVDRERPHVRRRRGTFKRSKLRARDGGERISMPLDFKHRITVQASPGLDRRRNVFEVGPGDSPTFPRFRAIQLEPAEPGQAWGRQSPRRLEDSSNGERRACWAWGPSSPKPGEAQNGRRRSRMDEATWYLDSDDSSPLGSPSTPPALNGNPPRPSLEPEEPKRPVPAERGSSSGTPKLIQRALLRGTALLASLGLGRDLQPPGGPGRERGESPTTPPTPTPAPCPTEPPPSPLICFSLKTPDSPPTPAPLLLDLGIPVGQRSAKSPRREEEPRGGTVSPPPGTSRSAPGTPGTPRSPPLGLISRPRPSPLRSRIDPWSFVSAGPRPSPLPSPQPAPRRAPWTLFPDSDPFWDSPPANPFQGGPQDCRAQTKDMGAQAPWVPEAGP
Procedure, shortened: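 Activated MLK-3 (20 nM) with myelin basic protein (20 μM) in 20 mM Hepes pH 7.5, MgCl2, EGTA, Brij35, BSA, Na3VO4, DTT, 1% DMSO. Started with 33P-ATP at 50 μM ATP, 20 min at room temperature; % activity by HOTSPOT filter binding.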

[3] = Blood brain barrier penetration: standard murine pharmacokinetic model, plasma and brain concentrations; assay type: in vivo; conditions: mouse; brain concentration 3 hrs after single IV injection 10 mg/kg, CL57 BL/6 mice; read-out: Cbrain 3 hrs
Text: Compounds disclosed herein may be evaluated in pharmacokinetic assays and models to determine absorption, distribution, metabolism, and excretion parameters. The choice and tailoring of in vitro and ex vivo assays and in vivo models will vary according to the route of administration/formulation, indication under study, properties of test compounds, etc., as well as according to such factors as costs, availability of technology and resources, etc. Such parameters are well known in the fields of pharmacology and drug development. It is within the capacity of one skilled in the art to design and carry out, such work, or to outsource it to a capable third party.
Several compounds disclosed herein were evaluated in a standard murine pharmacokinetic model. […] For ease of analysis compounds were dissolved in 5% DMSO, 40% PEG400, and […] to yield a nominal concentration of 2 mg/mL for intravenous administration. Compounds were administered via a single intravenous (IV) injection in CL57 BL/6 mice at 10 mg/kg in DMSO/PEG400/Saline solution. Three mice in each group were used for blood and brain collection at each time point. Blood samples (300 μL) were collected via the retro-orbital vein predose and at 30, 60 and 180 minutes postdose. Blood samples were placed into tubes containing sodium heparin and centrifuged under refrigerated conditions at 8000 rpm for 6 minutes to separate plasma from the samples. The brain of each animal was collected after the final blood collection. The whole tissue was harvested, excised and rinsed by saline, dried by filter paper, and then placed into one tube per tissue per animal. All samples were stored at −20° C. until bioanalysis. Compound concentrations in plasma and brain homogenate were determined using a high performance liquid chromatography/mass spectrometry (HPLC/MS/MS) methods.

[4] = molecular target: T1, diverse set of kinases (Homo sapiens, UniProt O14920); experiment: Protein kinase selectivity: IC50 against a diverse set of kinases, compared with URMC-099; assay type: biochemical; conditions: kinase IKKb
T1 construct: IC50 IKKb; other: kinase IKKb
T1 sequence (O14920 1-756): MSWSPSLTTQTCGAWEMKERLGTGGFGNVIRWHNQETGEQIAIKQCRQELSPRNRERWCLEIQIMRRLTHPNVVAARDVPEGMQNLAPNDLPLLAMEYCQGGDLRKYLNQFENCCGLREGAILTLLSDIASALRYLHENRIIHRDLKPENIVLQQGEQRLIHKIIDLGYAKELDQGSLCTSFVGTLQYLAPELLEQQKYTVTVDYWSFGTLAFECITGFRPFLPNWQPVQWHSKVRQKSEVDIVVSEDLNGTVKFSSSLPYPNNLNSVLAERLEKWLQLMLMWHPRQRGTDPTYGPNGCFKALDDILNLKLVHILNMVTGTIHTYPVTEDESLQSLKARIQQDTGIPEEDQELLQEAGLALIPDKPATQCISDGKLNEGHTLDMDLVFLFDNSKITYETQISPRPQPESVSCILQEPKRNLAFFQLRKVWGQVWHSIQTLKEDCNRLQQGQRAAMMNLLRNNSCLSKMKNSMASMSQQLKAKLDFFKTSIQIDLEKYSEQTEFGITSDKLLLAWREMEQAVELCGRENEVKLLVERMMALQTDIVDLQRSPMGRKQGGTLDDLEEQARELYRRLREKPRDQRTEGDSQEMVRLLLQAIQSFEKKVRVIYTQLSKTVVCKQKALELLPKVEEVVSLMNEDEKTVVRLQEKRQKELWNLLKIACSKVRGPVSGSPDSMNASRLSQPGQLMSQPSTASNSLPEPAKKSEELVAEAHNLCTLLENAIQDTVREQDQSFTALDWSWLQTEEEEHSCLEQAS
Text: (§1) Protein Kinase Selectivity: MLK-3 inhibitors previously reported in the literature are somewhat promiscuous and inhibit a large number of serine and threonine protein kinases. Compounds of the present invention that show potent inhibition on MLK-3 are very specific for MLK family kinases. […] Journal of Medicinal Chemistry, 2013.

[5] = molecular target: T2, diverse set of kinases (Homo sapiens, UniProt O15111); experiment: as above; assay type: biochemical; conditions: kinase IKKa
T2 construct: IC50 IKKa; other: kinase IKKa
T2 sequence (O15111 1-745): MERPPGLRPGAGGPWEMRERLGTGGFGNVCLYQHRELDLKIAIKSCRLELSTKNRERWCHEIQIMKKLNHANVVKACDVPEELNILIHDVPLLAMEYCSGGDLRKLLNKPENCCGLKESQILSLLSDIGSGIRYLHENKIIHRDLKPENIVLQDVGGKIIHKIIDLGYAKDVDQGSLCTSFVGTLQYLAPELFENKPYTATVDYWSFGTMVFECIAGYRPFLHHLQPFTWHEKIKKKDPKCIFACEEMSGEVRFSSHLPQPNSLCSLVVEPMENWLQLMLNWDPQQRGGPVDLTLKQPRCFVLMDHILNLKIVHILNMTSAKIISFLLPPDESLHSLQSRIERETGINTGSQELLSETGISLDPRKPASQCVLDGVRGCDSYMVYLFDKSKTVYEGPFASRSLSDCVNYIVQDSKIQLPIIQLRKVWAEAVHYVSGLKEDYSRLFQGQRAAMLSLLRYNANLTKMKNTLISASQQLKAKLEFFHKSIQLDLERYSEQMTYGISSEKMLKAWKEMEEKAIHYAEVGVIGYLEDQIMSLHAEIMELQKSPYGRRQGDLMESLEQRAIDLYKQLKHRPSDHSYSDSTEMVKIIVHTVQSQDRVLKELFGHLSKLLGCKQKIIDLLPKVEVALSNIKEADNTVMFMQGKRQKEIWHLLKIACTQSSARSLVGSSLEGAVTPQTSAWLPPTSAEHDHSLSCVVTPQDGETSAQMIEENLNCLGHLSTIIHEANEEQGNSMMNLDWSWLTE
Text: as §1

[6] = molecular target: diverse set of kinases (Homo sapiens, UniProt P00519, T315I); experiment: as above; assay type: biochemical; conditions: kinase ABL1, read-out: IC50 ABL1(T31SI)
Text: as §1

[7] = molecular target: T3, diverse set of kinases (Homo sapiens, UniProt P06213); experiment: as above; assay type: biochemical; conditions: kinase IR
T3 construct: IC50 IR; other: kinase IR
T3 sequence (P06213 whole entry): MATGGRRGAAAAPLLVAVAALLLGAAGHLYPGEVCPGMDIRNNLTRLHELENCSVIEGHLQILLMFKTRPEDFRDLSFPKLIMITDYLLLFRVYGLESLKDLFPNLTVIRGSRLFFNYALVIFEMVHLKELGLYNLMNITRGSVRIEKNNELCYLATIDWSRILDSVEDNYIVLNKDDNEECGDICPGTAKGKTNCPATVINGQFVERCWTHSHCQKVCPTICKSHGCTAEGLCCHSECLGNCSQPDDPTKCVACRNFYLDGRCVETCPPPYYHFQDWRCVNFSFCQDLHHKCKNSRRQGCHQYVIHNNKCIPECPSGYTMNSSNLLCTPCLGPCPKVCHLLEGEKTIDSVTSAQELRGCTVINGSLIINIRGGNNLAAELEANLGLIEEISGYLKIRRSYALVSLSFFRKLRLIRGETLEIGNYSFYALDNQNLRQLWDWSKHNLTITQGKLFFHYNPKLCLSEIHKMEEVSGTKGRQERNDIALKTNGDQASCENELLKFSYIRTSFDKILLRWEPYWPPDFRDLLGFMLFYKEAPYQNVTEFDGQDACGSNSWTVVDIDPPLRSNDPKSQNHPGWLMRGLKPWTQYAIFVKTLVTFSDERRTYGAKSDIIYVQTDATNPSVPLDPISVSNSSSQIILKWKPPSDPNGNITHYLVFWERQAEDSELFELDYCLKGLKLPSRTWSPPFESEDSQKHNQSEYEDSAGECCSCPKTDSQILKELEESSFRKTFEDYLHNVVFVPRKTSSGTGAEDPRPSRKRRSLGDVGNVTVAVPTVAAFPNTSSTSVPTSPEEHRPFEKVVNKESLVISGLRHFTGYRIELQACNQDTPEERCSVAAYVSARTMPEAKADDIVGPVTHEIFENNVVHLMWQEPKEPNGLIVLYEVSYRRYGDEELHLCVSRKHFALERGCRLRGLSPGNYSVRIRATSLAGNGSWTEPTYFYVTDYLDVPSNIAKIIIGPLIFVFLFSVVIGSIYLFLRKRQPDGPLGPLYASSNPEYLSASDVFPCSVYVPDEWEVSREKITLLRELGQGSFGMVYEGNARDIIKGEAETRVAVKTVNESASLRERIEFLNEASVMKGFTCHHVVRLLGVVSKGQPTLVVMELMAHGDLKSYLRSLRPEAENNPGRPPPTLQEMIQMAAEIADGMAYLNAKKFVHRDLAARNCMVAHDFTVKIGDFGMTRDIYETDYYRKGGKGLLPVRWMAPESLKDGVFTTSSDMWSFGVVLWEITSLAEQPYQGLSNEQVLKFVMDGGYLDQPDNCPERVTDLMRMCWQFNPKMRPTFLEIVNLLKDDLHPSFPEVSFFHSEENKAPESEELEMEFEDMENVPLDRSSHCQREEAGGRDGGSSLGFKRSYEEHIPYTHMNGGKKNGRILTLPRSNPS
Text: as §1

[8] = molecular target: T4, diverse set of kinases (Homo sapiens, UniProt P24941); experiment: as above; assay type: biochemical; conditions: kinase CDK2
T4 construct: IC50 CDK2; other: kinase CDK2
Text: as §1

[9] = system: E18 primary hippocampal neurons; experiment: Neuroprotection from HIV-1 Tat: hippocampal neurons in microfluidic chambers exposed to Tat-treated BV-2 microglia; assay type: cell-based; conditions: BV-2 microglia treated with 1 μg/ml HIV-1 Tat; for Axonogenesis in the presence of Tat-activated microglia: compound 100 nM, FIG. 1 arrows
Description: FIG. 2 is a graph illustrating the quantification of axon elimination in the presence of HIV tat and certain inhibitors including compounds of the present disclosure. FIG. 3 is a graph illustrating the quantification of axon length in the presence of HIV tat and certain inhibitors including compounds of the present disclosure. Neuroprotection from HIV-1 Tat: E18 primary hippocampal neurons were plated in microfluidic chambers for 7 days in vitro (DIV). These chambers contain a cell body compartment contiguous with a series of 10 um wide, 3 um high, 400 um long microgrooves through which axons grow into a second compartment, fluidically isolated by a hydrostatic pressure gradient. […] Chambers that were exposed to BV-2 microglia treated with Tat alone had almost their entire axonal field destroyed (FIG. 1, brightfield image). […] FIGS. 2 and 3 show quantifications of axon elimination in the presence of HIV tat and Compounds 169, 67, 68 and 175.

| SMILES | CNS / blood brain barrier penetration [1] | IC50 [2] | concentration at 3 h [3] | IC50 [4] | IC50 [5] | IC50 [6] | IC50 [7] | IC50 [8] | Axonogenesis in the presence of Tat-activated microglia ([9]; listed as Compound 68) | Axonogenesis in the presence of Tat-activated microglia ([9]; listed as compound 68) | IC50 ([6]; read-out: IC50 ABL1) | Protection of the axon field ([9]; test compounds 100 nM, 18 hours) |
| --- | --- | --- | --- | --- | --- | --- | --- | --- | --- | --- | --- | --- |
| CCSCc1ccc2c(c1)c1c3c(c4c5cc(CSCC)ccc5n5c4c1n2[C@H]1C[C@](O)(C(=O)OC)[C@]5(C)O1)CNC3=O [CEP-1347] | very poor blood brain barrier penetration; also recorded: poor CNS penetration |  |  |  |  |  |  |  |  |  |  |  |
| COc1ccc(Nc2ccc3ncc(-c4cc5ccccc5s4)n3n2)cc1OC [Compound 12, 3-(benzo[b]thiophen-2-yl)-N-(3,4-dimethoxyphenyl)imidazo[1,2-b]pyridazin-6-amine] |  | 0.1 to 0.5 µM | 1280 ng/g | > 10 µM | > 10 µM | > 10 µM | > 10 µM | 19.4 µM |  |  |  |  |
| COc1ccc(Nc2ccc3ncc(-c4cc5cc(OC)c(OC)cc5s4)n3n2)cc1OC [Compound 67, 3-(5,6-dimethoxybenzo[b]thiophen-2-yl)-N-(3,4-dimethoxyphenyl)imidazo[1,2-b]pyridazin-6-amine] |  | < 0.1 µM | 566 ng/g | > 10 µM | > 10 µM | > 10 µM | > 10 µM | > 10 µM |  |  |  |  |
| COc1ccc(Nc2ccc3ncc(-c4cc5cccc(OC)c5s4)n3n2)cc1OC [Compound 68, 3-(7-methoxybenzo[b]thiophen-2-yl)-N-(3,4-dimethoxyphenyl)imidazo[1,2-b]pyridazin-6-amine] |  | < 0.1 µM | 1550 ng/g | > 10 µM | > 10 µM | > 10 µM | > 10 µM | > 10 µM | continued axonogenesis | promoted continued axonogenesis |  |  |
| O[C@H]1CC[C@H](Nc2ccc3ncc(-c4cc5ccccc5s4)n3n2)CC1 [Compound 105, trans-4-(3-(benzo[b]thiophen-2-yl)imidazo[1,2-b]pyridazin-6-ylamino)cyclohexanol] |  | 0.1 to 0.5 µM |  | > 10 µM | > 10 µM | > 10 µM | > 10 µM | 1.03 µM |  |  |  |  |
| COc1cc2cc(-c3cnc4ccc(N[C@H]5CC[C@H](O)CC5)nn34)sc2cc1OC [Compound 169, trans-4-(3-(5,6-dimethoxybenzo[b]thiophen-2-yl)imidazo[1,2-b]pyridazin-6-ylamino)cyclohexanol] |  | < 0.1 µM |  | > 10 µM | > 10 µM | > 10 µM | > 10 µM | 8.26 µM |  |  |  |  |
| COc1cccc2cc(-c3cnc4ccc(N[C@H]5CC[C@H](O)CC5)nn34)sc12 [Compound 170, trans-4-(3-(7-methoxybenzo[b]thiophen-2-yl)imidazo[1,2-b]pyridazin-6-ylamino)cyclohexanol] |  | < 0.1 µM |  | > 10 µM | > 10 µM | > 10 µM | > 10 µM | > 10 µM |  |  |  |  |
| COc1cc2cc(-c3cnc4ccc(N(C)[C@H]5CC[C@H](OC)CC5)nn34)sc2cc1OC [Compound 175, 3-(5,6-dimethoxybenzo[b]thiophen-2-yl)-N-(trans-4-methoxycyclohexyl)-N-methylimidazo[1,2-b]pyridazin-6-amine] |  | < 0.1 µM | 1880 ng/g |  |  |  |  |  |  |  |  |  |
| CN1CCN(Cc2ccc(-c3cnc4[nH]cc(-c5ccc6[nH]ccc6c5)c4c3)cc2)CC1 [URMC-099, reference compound] |  |  |  | 0.257 µM | 0.591 µM |  | 0.2 µM | 1.18 µM |  |  | 0.003 µM | protected the axon field |
